Results: US10653688B2, “6-(6-membered heteroaryl and aryl)isoquinolin-3-yl carboxamides and preparation and use thereof” (Samumed, LLC, priority 2017, dated 2020)
pEC50: −log10 of the molar value. Where two headings read alike, the source gives them in different places.

Tests used:
[1] = tested on: IL-6 in human peripheral blood mononuclear cells (huPBMCs); test: IL-6 inhibition in LPS-stimulated human peripheral blood mononuclear cells (HTRF); type: cell-based; conditions: Homo sapiens, PBMC; for pEC50: LPS 50 ng/mL, 22 hours, IL-6 HTRF
Procedure: Human Peripheral Blood Mononuclear Cells:
Fresh Normal PB MNC (Catalog # PB001, AllCells, Alameda, Calif.) were shipped overnight at 4° C. and resuspended in Roswell Park Memorial Institute (RPMI) 1640 Medium, with GlutaMAX Supplement (Catalog #61870127, ThermoFisher Scientific, Waltham, Mass.) supplemented with 1% Penicillin-Streptomycin (Catalog #15140163, ThermoFisher Scientific, Waltham, Mass.) and 1% fetal bovine serum (FBS) (Catalog #16140089, ThermoFisher Scientific, Waltham, Mass.) assay media.
Fresh normal human peripheral blood mononuclear cells (huPBMCs) were resuspended in 1% FBS-RPMI assay media with 1% Penicillin-Streptomycin 1% to a cell concentration of 1×10e6 cells/mL. […] 50 ng/mL of Lipopolysaccharides from Escherichia coli 0111:B4 (Catalog # L5293-2ML, Sigma-Aldrich, St. Louis, Mo.) was added after 2 hours and cells were incubated for another 22 hours at 37° C.-5% CO2. After 22 hour incubation, a mixture of anti-IL6 XL665 and anti-IL-6 Cryptate diluted in reconstitution buffer (Catalog #62IL6PEC, Cisbio Inc., Bedford, Mass.) was added to each well. Following incubation for 3 hours at room temperature, Homogeneous Time-Resolved Fluorescence (HTRF) was measured using the Envision (Perkin Elmer, Shelton, Conn.) at 665 nm and […]. The ratio of fluorescence at 665 nm to 620 nm was used as a readout for IL-6 quantification. All samples were processed in duplicate. Readings were normalized to DMSO treated cells and normalized activities were utilized for EC50 calculations. EC50 was determined using software generated by Dotmatics Limited (Windhill Bishops Stortford Herts, UK) using the Levenberg-Marquardt 4 parameter fitting procedure with finite different gradients.

[2] = tested on: Wnt activity (SW480 colon carcinoma cells stably expressing the Sp5-Luc reporter gene); test: Wnt activity screening assay (Sp5-Luc reporter gene assay); type: cell-based, human; conditions: Homo sapiens, 36 to 48 hours
From the text: The screening assay for Wnt activity is described as follows. Reporter cell lines can be generated by stably transducing cancer cell lines (e.g., colon cancer) or primary cells (e.g., IEC-6 intestinal cells) with a lentiviral construct that includes a Wnt-responsive promoter driving expression of the firefly luciferase gene.
SW480 colon carcinoma cells were transduced with a lentiviral vector expressing luciferase with a human Sp5 promoter consisting of a sequence of eight TCF/LEF binding sites. SW480 cells stably expressing the Sp5-Luc reporter gene and a hygromycin resistance gene were selected by treatment with 150 μg/mL of hygromycin for 7 days. These stably transduced SW480 cells were expanded in cell culture and used for all further screening activities. […] For Sp5-Luc reporter gene assays, the cells were plated at 4,000 cells/well in 384-well plates with a DMEM medium containing 1% fetal bovine serum, and 1% Penicillin-Streptomycin and incubated for 36 to 48 hours at 37° C. and 5% CO2. Following incubation, 15 μl of BriteLite Plus luminescence reagent (Perkin Elmer) was added to each well of the 384-well assay plates. The plates were placed on an orbital shaker for 2 min and then luminescence was quantified using the Envision (Perkin Elmer) plate reader. Readings were normalized to DMSO only treated cells, and normalized activities were utilized for EC50 calculations using the dose-response log (inhibitor) vs. response-variable slope (four parameters) nonlinear regression feature available in GraphPad Prism 5.0 (or Dotmatics).

[3] = tested on: SW480 colon carcinoma cells; test: Cell viability assay (CellTiter-Glo); type: cell-based, human; conditions: Homo sapiens, 96 h, four days, CellTiter-Glo
Procedure: SW480 colon carcinoma cells were transduced with a lentiviral vector expressing luciferase with a human Sp5 promoter consisting of a sequence of eight TCF/LEF binding sites. SW480 cells stably expressing the Sp5-Luc reporter gene and a hygromycin resistance gene were selected by treatment with 150 μg/mL of hygromycin for 7 days. These stably transduced SW480 cells were expanded in cell culture and used for all further screening activities.
For the Cell Viability Assays, the cells were plated at 2,000 cells/well in 384-well plates with a DMEM medium containing 1% fetal bovine serum, and 1% Penicillin-Streptomycin and incubated for […] at 37° C. and 5% CO2. Eight replicates of DMSO-treated cells served as controls and cells treated with compound were performed in duplicate.
After incubation, 10 μL of CellTiter-Glo (Promega) was added to each well allowed to incubate for approximately 12 minutes. This reagent “results in cell lysis and generation of a luminescent signal proportional to the amount of ATP present. The amount of ATP is directly proportional to the number of cells present in culture, in agreement with previous reports. The CellTiter-Glo Assay generates a “glow-type” luminescent signal, produced by the luciferase reaction (Promega.com)”.

[4] = tested on: LL29 cells (primary human fibroblasts derived from IPF patients), α-smooth muscle actin; test: Inhibition of fibrotic process: TGF-β1-treated primary human fibroblasts, αSMA staining; type: cell-based; conditions: Homo sapiens, Fibroblast; for pEC50: 96 h, TGF-β1 20 ng/mL, 4 days, % cells positive for αSMA;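 as to all read-outs here: controls were TGF-β1-stimulated wells with DMSO vehicle as the positive reference and cells given DMSO alone as the negative reference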
recombinant GSK3β kinase = recombinant GSK3β kinase (Homo sapiens (Human), UniProt P49841); test: GSK3β kinase assay (Ser/Thr 09 peptide Z-lyte, FRET); type: biochemical;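 also: FRET read-out as coumarin over fluorescein emission ratio, compounds incubated one hour at room temperature, IC50 from dose-response curve fit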
[5] = biological target: recombinant DYRK1A kinase (Homo sapiens (Human), UniProt Q13627); test: DYRK1A kinase assay (Ser/Thr 18 peptide Z-lyte, FRET)
[6] = GSK3β kinase, head says EC50, method says IC50, ATP 46 μM
[7] = DYRK1A kinase, head says EC50, method says IC50, ATP 30 μM

recombinant GSK3β kinase, sequence (P49841 whole entry): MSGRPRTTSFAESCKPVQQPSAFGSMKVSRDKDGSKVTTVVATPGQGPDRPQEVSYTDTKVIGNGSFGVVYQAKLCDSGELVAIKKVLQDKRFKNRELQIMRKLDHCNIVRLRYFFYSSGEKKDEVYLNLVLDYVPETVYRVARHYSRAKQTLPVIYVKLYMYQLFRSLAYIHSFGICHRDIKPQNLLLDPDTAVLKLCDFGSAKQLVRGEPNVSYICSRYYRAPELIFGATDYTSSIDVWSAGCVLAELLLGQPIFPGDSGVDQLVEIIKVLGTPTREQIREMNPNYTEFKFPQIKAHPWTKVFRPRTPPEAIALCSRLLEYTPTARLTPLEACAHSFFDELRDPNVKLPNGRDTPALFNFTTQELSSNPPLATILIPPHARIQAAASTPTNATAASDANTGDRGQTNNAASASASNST

pEC50 [1] | pEC50 [2] | pEC50 [3] | pEC50 (recombinant GSK3β kinase; [6]) | pEC50 [5, 7] | pEC50 (recombinant GSK3β kinase) | pEC50 [5] | SMILES | inhibition at 10 µM ([1]; read-out: percent inhibition at 10 μM (given for EC50 >10 μM), LPS, IL-6, 10 μM) [%] | pEC50 [4] | inhibition at 10 µM ([4]; read-out: percent inhibition at 10 μM (given for EC50 >10 μM), TGF-β1, αSMA, 10 μM) [%]
< 5.00 | 5.23 | 5.08 | < 5.00 | 7.02 | – | – | CN1CCN(c2cc(C(=O)Nc3cc4cc(-c5cnccn5)ccc4cn3)ccn2)CC1 [Compound 84, 2-(4-Methylpiperazin-1-yl)-N-(6-(pyrazin-2-yl)isoquinolin-3-yl)isonicotinamide] | 5.7 | < 5.00 | 35.4
5.17 | 6.12 | 5.61 | < 5.00 | 8.70 | – | – | CNc1cncc(-c2ccc3cnc(NC(=O)c4ccnc(N5CCN(C)CC5)c4)cc3c2)n1 [Compound 85, N-(6-(6-(Methylamino)pyrazin-2-yl)isoquinolin-3-yl)-2-(4-methylpiperazin-1-yl)isonicotinamide] | – | 5.73 | –
5.95 | 5.79 | 5.47 | – | – | 7.77 | 9.00 | CC(C)Nc1cncc(-c2ccc3cnc(NC(=O)C4CNC4)cc3c2)n1 [Compound 86, N-(6-(6-(Isopropylamino)pyrazin-2-yl)isoquinolin-3-yl)azetidine-3-carboxamide] | – | 6.69 | –
6.42 | 6.70 | 6.12 | 7.42 | 9.00 | – | – | CC(C)Nc1cncc(-c2ccc3cnc(NC(=O)C4CCNCC4)cc3c2)n1 [Compound 87, N-(6-(6-(Isopropylamino)pyrazin-2-yl)isoquinolin-3-yl)piperidine-4-carboxamide] | – | 5.72 | –
6.33 | 6.86 | 6.33 | 8.00 | 9.00 | – | – | CC(C)Nc1cncc(-c2ccc3cnc(NC(=O)C4CCN(C(C)C)CC4)cc3c2)n1 [Compound 90, 1-isopropyl-N-(6-(6-(isopropylamino)pyrazin-2-yl)isoquinolin-3-yl)piperidine-4-carboxamide] | – | 7.43 | –
6.43 | 6.85 | 6.63 | 5.47 | 8.05 | – | – | CC(C)Nc1cncc(-c2ccc3cnc(NC(=O)c4cccc(C5CCNCC5)c4)cc3c2)n1 [Compound 92, N-(6-(6-(Isopropylamino)pyrazin-2-yl)isoquinolin-3-yl)-3-(piperidin-4-yl) benzamide] | – | 5.49 | –
6.09 | 6.88 | 6.77 | 5.18 | 9.00 | – | – | CC(C)Nc1cncc(-c2ccc3cnc(NC(=O)c4cccc(C5CCN(C)CC5)c4)cc3c2)n1 [Compound 93, N-(6-(6-(Isopropylamino)pyrazin-2-yl)isoquinolin-3-yl)-3-(1-methylpiperidin-4-yl)benzamide] | – | 5.65 | –
6.86 | 7.62 | 7.34 | 5.57 | 8.70 | – | – | CC(C)Nc1cncc(-c2ccc3cnc(NC(=O)c4cn(C5CCNCC5)nn4)cc3c2)n1 [Compound 94, N-(6-(6-(isopropylamino)pyrazin-2-yl)isoquinolin-3-yl)-1-(piperidin-4-yl)-1H-1,2,3-triazole-4-carboxamide] | – | 6.99 | –
6.51 | 7.55 | 7.04 | 5.52 | 9.00 | – | – | CC(C)Nc1cncc(-c2ccc3cnc(NC(=O)c4cn(C5CCN(C(C)C)CC5)nn4)cc3c2)n1 [Compound 96, N-(6-(6-(Isopropylamino)pyrazin-2-yl)isoquinolin-3-yl)-1-(1-isopropylpiperidin-4-yl)-1H-1,2,3-triazole-4-carboxamide] | – | 6.82 | –
6.74 | 8.15 | 6.65 | 5.20 | 8.70 | – | – | CC(C)Nc1cncc(-c2ccc3cnc(NC(=O)c4ccnc(N5CCN(C)CC5)c4)cc3c2)n1 [Compound 97, N-(6-(6-(Isopropylamino)pyrazin-2-yl)isoquinolin-3-yl)-2-(4-methylpiperazin-1-yl)isonicotinamide] | – | 6.51 | –
7.06 | 7.62 | 7.51 | 5.32 | 8.70 | – | – | CN(C)C1CN(c2cc(C(=O)Nc3cc4cc(-c5cncc(NC(C)(C)C)n5)ccc4cn3)ccn2)C1 [Compound 98, N-(6-(6-(tert-Butylamino)pyrazin-2-yl)isoquinolin-3-yl)-2-(3-(dimethylamino)azetidin-1-yl)isonicotinamide] | – | 7.49 | –
6.90 | 7.74 | 7.37 | 6.13 | 8.40 | – | – | CN1CC=C(c2cc(C(=O)Nc3cc4cc(-c5cncc(NC(C)(C)C)n5)ccc4cn3)ccn2)CC1 [Compound 99, N-(6-(6-(tert-Butylamino)pyrazin-2-yl)isoquinolin-3-yl)-1′-methyl-1′,2′,3′,6′-tetrahydro-[2,4′-bipyridine]-4-carboxamide] | – | 7.51 | –
6.65 | 7.29 | 6.95 | 5.29 | 8.40 | – | – | CN1CCN(c2cc(C(=O)Nc3cc4cc(-c5cncc(NC(C)(C)C)n5)ccc4cn3)ccn2)CC1 [Compound 100, N-(6-(6-(tert-Butylamino)pyrazin-2-yl)isoquinolin-3-yl)-2-(4-methylpiperazin-1-yl)isonicotinamide] | – | 7.35 | –
6.59 | 7.38 | 7.21 | < 5.00 | 8.40 | – | – | CC(C)N1CCN(c2cc(C(=O)Nc3cc4cc(-c5cncc(NC(C)(C)C)n5)ccc4cn3)ccn2)CC1 [Compound 101, N-(6-(6-(tert-Butylamino)pyrazin-2-yl)isoquinolin-3-yl)-2-(4-isopropylpiperazin-1-yl)isonicotinamide] | – | 7.34 | –

SMILES | pEC50 [1] | pEC50 [2] | pEC50 [3] | pEC50 (recombinant GSK3β kinase; [6]) | pEC50 [5, 7] | pEC50 (recombinant GSK3β kinase) | pEC50 [5] | inhibition at 10 µM ([1]; read-out: percent inhibition at 10 μM (given for EC50 >10 μM), LPS, IL-6, 10 μM) [%] | pEC50 [4] | inhibition at 10 µM ([4]; read-out: percent inhibition at 10 μM (given for EC50 >10 μM), TGF-β1, αSMA, 10 μM) [%]
CC(C)Nc1cncc(-c2ccc3cnc(NC(=O)c4cn(C5CCN(CCF)CC5)nn4)cc3c2)n1 [Compound 95, 1-(1-(2-fluoroethyl)piperidin-4-yl)-N-(6-(6-(isopropylamino)pyrazin-2-yl)isoquinolin-3-yl)-1H-1,2,3-triazole-4-carboxamide] | 6.68 | 7.47 | 5.98 | 5.16 | 8.70 | – | – | – | 7.04 | –
